Tested on: Lung cancer A549 cells
Assay: Chemosensitivity to anticancer drugs in 2D TCP and 3D scaffold (MTS CellTiter 96 cell viability)
Format: cell-based, human
Conditions: 48 hrs treatment; 2D TCP vs 3D CA/Rayon, 1:9 scaffold; 25000 cells seeded
Procedure: FIG. 18. Chemosensitivity of cancer cell lines in response to 48 hrs treatment with anticancer drugs when cultured in 2D Tissue Culture Plates (TCP) and 3D CA/Rayon, 1:9 scaffold.
25000 cells of tested cell lines were seeded in 2D TCP and 3D scaffold. Cells were treated with anticancer drugs for 48 hrs and then cell viability was measured using MTS CellTiter 96® Aqueous One Solution assay (Promega).

O=c1[nH]cc(F)c(=O)[nH]1 [5-fluorouracil]
chemosensitivity (cell viability) of A549 cells: more sensitive to 5-fluorouracil and doxorubicin in 2D TCP than in 3D scaffolds

COc1cccc2c1C(=O)c1c(O)c3c(c(O)c1C2=O)C[C@@](O)(C(=O)CO)C[C@@H]3O[C@H]1C[C@H](N)[C@H](O)[C@H](C)O1 [doxorubicin]
chemosensitivity (cell viability) of A549 cells: more sensitive to 5-fluorouracil and doxorubicin in 2D TCP than in 3D scaffolds

Source: patent US20160257927A1, “THREE-DIMENSIONAL CELL CULTURE USING NANOFIBER SLURRIES AND NANO-STRUCTURED SUBSTRATES” (UCL BUSINESS PLC, priority 2015, published 2016)
